The text below walks through data of PMC9815544, “Discovery of potent and noncovalent KRAS^G12D inhibitors: Structure-based virtual screening and biological evaluation” (Frontiers in Pharmacology, 2022).

In assay [1] the target is T1, KRAS^G12D (Homo sapiens, UniProt P01116, G12D).
T1 construct: purchased Abcam
The settings on record: known inhibitor, Figure 1, cited from earlier work.

For another assay, the system named is Panc 04.03 cells. Put plainly: MTT cell proliferation assay. In kind it is cell-based. The settings on record: Homo sapiens, 72 h treatment. As to the method:
According to the previously reported method ([Yang et al., 2019]), the human pancreatic cancer cell line (Panc 04.03) was seeded at the density of 2.4 × 10^4 on 96-well plates. After incubation at 37°C with 5% CO2 for 24 h, the cells were incubated with different concentrations of inhibitors under the same conditions. After 72 h, MTT (0.5 mg/ml, 100 μl) was added after the supernatant was discarded. Then keep the 96-well plate at 37°C for 4 h. After that, abandon the medium and inject 200 μl of dimethyl sulfoxide (DMSO) into each well. The spectrophotometric absorbance of the sample at 570 nm was measured using a Synergy 4 Microplate Reader (BioTek Instruments Inc., United States). All of the compounds were tested three times in each of the cells.

The target in assay [2] is T1, KRAS^G12D. Put plainly: Microscale thermophoresis (MST) binding assay. The note with it: room temperature. How it is done:
MST is an effective method to evaluate biomolecular interactions and has been used to study the interactions between binding partners of different molecular sizes ([Wienken et al., 2010]; [Seidel et al., 2013]). According to the previously reported method to measure the interaction between small molecule inhibitors and KRAS^G12D protein, the MST assay was performed using Monolith NT.115 instrument (NanoTemp Technologies, GmbH, Munich, Germany) ([Wienken et al., 2010]). The red fluorescent dye was used for KRAS^G12D fluorescent labeling. Small molecule inhibitors were diluted 1:1 and titrated. The binding buffer (50 mM Tris, 230 mM NaCl) was added to the dilution curve of the small molecule inhibitors and the labeled protein. The final sample was centrifuged at 13,000 rpm for 10 min, and then filled into the capillary tube for MST analysis with 20% LED power and 50% MST power at room temperature. The equilibrium dissociation constant (K d) was calculated using Nano Temper Analysis software.

In assay [3] the test system is Panc 04.03 xenograft tumors. Description: In vivo anticancer activity, Panc 04.03 xenograft. Also noted: species or system BALB/c nude mice. The settings on record: 3 and 10 mg/kg intraperitoneal every 4 days, five times, 20 days, vs vehicle. As to the method: Based on previously reported protocols for investigating inhibition in vivo ([Zhou et al., 2022]), we injected Panc 04.03 cells (200 μl, 1 × 10^7 cells) in the subdermal space on the right flank of 6-week-old BALB/c nude mice (Changzhou Cavens Laboratory Animal Co., Ltd, China). All experimental protocols were approved by the Animal Ethics Committee of China Pharmaceutical University (Ethic approval number: 2022–11–001). Once tumors grew to 80–100 mm^3, mice were randomly divided into three groups (5 mice per group) and intraperitoneally administered with vehicle, hit compound 3 (3 mg/kg) and hit compound 3 (10 mg/kg) every 4 days for a total of five times. Tumor volume and body weight were measured every 4 days. Tumor volume was calculated using the formula (c × c × d)/2 (c, the smallest diameter; d, the largest diameter).

Molecules are shown by their SMILES. Where two headings read alike, the source gives them in different places. Some results are limits rather than exact numbers.

T1 sequence (P01116 1-188 isoform P01116-2 G12D): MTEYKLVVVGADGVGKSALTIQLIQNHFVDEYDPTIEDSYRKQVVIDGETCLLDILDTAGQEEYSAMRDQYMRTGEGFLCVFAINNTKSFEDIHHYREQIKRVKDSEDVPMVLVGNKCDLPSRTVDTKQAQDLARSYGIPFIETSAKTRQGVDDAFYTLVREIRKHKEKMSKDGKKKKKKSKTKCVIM

For the compound `Cn1cnc(Cn2ccc3ccc(CNCc4[nH]c5ccccc5c4[C@H]4NC(=O)c5ccc(O)cc54)cc32)c1` [BI-2852], on KRAS^G12D [1] (ref Kessler et al., 2019), the IC50 was 6700 nM. For `C#Cc1c(F)ccc2cc(O)cc(-c3ncc4c(N5CC6CCC(C5)N6)nc(OCC(C)NC(F)(F)F)nc4c3F)c12` (stereo not shown) [Hit compound 1], in the assay with Panc 04.03 cells, the IC50 is 212 nM. The compound further registered a Kd on KRAS^G12D [2] of 0.98 ± 0.09 nM. Regarding `C#Cc1c(F)ccc2cc(O)cc(-c3ncc4c(N5CC6CCC(C5)N6)nc(OCC5CCCN5CC5CC5)nc4c3F)c12` (stereo not shown) [Hit compound 2], the IC50 in the assay on Panc 04.03 cells amounted to 90 nM. This compound registered a dissociation constant (Kd) on KRAS^G12D [2] of 0.46 ± 0.08 nM. On to `Oc1cc(-c2ncc3c(N4CC5CCC(C4)N5)nc(OCC4CCCN4CCC4CCCC4)nc3c2F)c2c(Cl)cccc2c1` (stereo not shown) [Hit compound 3], for which, in the assay with Panc 04.03 cells, the IC50 was 43.8 nM. The Kd on KRAS^G12D [2] was 0.13 ± 0.05 nM. Further, the “Tumor growth (tumor volume) of Panc 04.03 xenograft” value in assay [3] is given as “significantly inhibited”.

With `Oc1cc(-c2ncc3c(N4CC5CCC(C4)N5)nc(OCCNC4CCCCC4)nc3c2F)c2c(Cl)cccc2c1` [Hit compound 4], the IC50 in the assay on Panc 04.03 cells turned out to be 146 nM. At KRAS^G12D [2], this compound gave a Kd of 0.76 ± 0.11 nM. With `Cc1cccc2cccc(N3CCc4c(nc(OCC5CCCN5C)nc4N4CC5CCC(C4)N5)C3)c12` (stereo not shown) [TH-Z835, reference compound], the IC50 in the assay with Panc 04.03 cells was above 300 nM; at KRAS^G12D [1] (ref Mao et al., 2022) it was 1600 nM. Turning to `NC1(C(=O)NCCCn2cc(-c3ccc(OC(F)(F)F)cc3)c3cc(CN4CCN(Cc5c(Cl)cccc5Cl)CC4)ccc32)CCNCC1` [compound 3144], on KRAS^G12D [1] (ref Welsch et al., 2017), the IC50 is 3800 nM.
